In patent publication US4192871A, “Chemical compounds” (Glaxo Laboratories Limited, priority 1976, dated 1980):
Counter-ions that a name gives are not always drawn.

Experiments:
[1] = dissolution of the 11β-aminoester salts in aqueous acid (Table 5 and Examples 101, 225-229); type: physicochemical; conditions: for concentration of aqueous solution of the citrate: citric acid monohydrate in water, filtered solution
Method: (§1) A solution of the above free base (492 mg; 1 mmole) in ethanol (10 ml) was treated with a solution (10 ml) of M/10 citric acid in ethanol water (9:1) and the mixture evaporated in vacuo at low temperature to afford a froth.
(§2) Table 5 summarises the properties and preparation of salts of the invention by one of the following methods:
(§3) A. The 11β-aminoester (1 part) was added to a solution of the acid (1 molar part) in water and the mixture stirred or shaken until a clear solution was obtained. The solution was made up with water to the weight indicated, filtered through a membrane and the pH determined.
(§4) B. The 11β-aminoester (1 part) was added to a solution of the acid (1 molar part) in water and the mixture stirred or shaken. As free base remained undissolved, further acid was added and the mixture agitated again. The solution was made up with water to the weight indicated and any material which then remained undissolved was collected in a weighed funnel and the weight of free base dissolved calculated and the pH of the solution measured.
(§5) C. A mixture of the 11β-aminoester (1 part), a 0.1 M solution of the acid (1 molar part) and ethanol was evaporated in vacuo and dried to constant weight. The residue was dissolved in a little water and any material which then remained undissolved collected in a weighed funnel and the weight of free base dissolved calculated. The solution was made up with water to the weight indicated and its pH measured.
(§6) D. The 11β-aminoester (1 part) was added to a solution of the acid (1 molar part) in water and the mixture stirred or shaken. The solution was made up with water to the weight indicated. The material remaining undissolved was collected in a weighed funnel and the weight of free base dissolved calculated and the pH of the solution measured.
(§7) E. As in method C except that further acid was added to the residue after addition of the small amount of water.
The solid citric acid used was as its monohydrate.
(§8) Sodium iodide (0.250 g) and diethylamine (0.5 ml) were added to a solution of 11β-chloroacetoxy-2β-ethoxy-3α-hydroxy-D-homo-5α-pregnan-20-one (0.250 g) in acetone (10 ml) and the mixture was left at room temperature for 3 days during which time a white solid precipated. Water was added and the yellow solution was concentrated in vacuo whereupon crystallisation occurred. The needles were filtered off and washed well with acetone/water yielding the title compound (0.201 g), m.p. 160°-73°, [α]D +60.8°. The above base (0.101 g) was stirred with citric acid monohydrate (0.042 g) in water (9.5 ml) for 21 hours. The solution was made up to 10.1 g by weight. The solid remaining out of solution was filtered off, dried and weighed. The solution was passed through a millipore filter giving an aqueous solution of the title compound, concentration 9.75 mg/ml, pH 3.66.
The above base (0.096 g) was stirred in a solution of citric acid monohydrate (0.038 g) in water (8.5 ml) for 20 hours. A large proportion of the steroid remained out of solution. More citric acid (0.038 g) was added and the mixture stirred for a further 6 hours. The solution was made up to 9.6 g by weight and the solid remaining out of solution was filtered off, dried and weighed. The solution was passed through a millipore filter giving an aqueous solution of the title compound, concentration 9.5 mg/ml, pH 2.85.
To a solution of citric acid monohydrate (52.5 mg) in water (2 ml) was added the above free base (115 mg). More water (8 ml) was added and the mixture was stirred for 72 hrs. A small amount of steroid remained out of solution and more citric acid (52.5 mg) was added. Within 5 mins. a clear solution was obtained which was made up to 11.5 g with water and filtered through a millipore filter yielding an aqueous solution of the title citrate, concentration 10 mg/ml, pH 3.0.
The above free base (112 mg) was added to a solution of citric acid monohydrate (52.5 mg) in water (2 ml). More water (8 ml) was added and the mixture was swirled from time to time. […]

pH of the salt solutions = type: physicochemical
Method: as §1, §2, §3, §4, §5, §6, §7
11β-N,N-Diethylaminoacetoxy-2β-ethoxy-3α-hydroxy-5α-pregnan-20-one (1.45 g) was agitated with citric acid monohydrate (621 mg) in 0.9% w/v sodium chloride solution (steriflex^(R)) (130 ml.) at 20° for 16.5 hours. The resulting solution was stirred at 21° and N/5 sodium hydroxide solution in steriflex^(R) (10.5 ml) was added dropwise during 30 minutes, raising the pH from 3.63 to 4.52. The solution was diluted to 162.5 g so that the concentration of steroid was 9 mg/ml. The solution of the citrate was filtered through a membrane and finally filtered into 8 sterile ampoules.
11β-(N-Butyl-N-ethylaminoacetoxy)-3α-hydroxy-5α-pregnan-20-one (1.80 g) was agitated with citric acid monohydrate (793 mg) in 0.9% w/v sodium chloride solution (steriflex^(R)) (160 ml) at 20° for 19.5 hours. The resulting solution was slightly cloudy. This solution was stirred at 21° and N/5 sodium hydroxide solution in steriflex^(R) (5.8 ml) was added dropwise during 15 minutes, raising the pH from 3.62 to 4.00. The solution was diluted to 201.2 g so that the concentration of steroid was 9 mg/ml. The cloudiness was removed by filtration through a membrane and the clear solution of the citrate was filtered into 8 sterile ampoules.
as §8, with “3.66. […]” for “3.66.”

[2] = method E: as C with further acid, WT. of solution Ex. 160: 6.12, 161: 7.8, 203: 12.7, 212: 12.125, 220: 10 g
[3] = aqueous solution of the salt, Table 5
[4] = aqueous solution of the citrate, filtered, 9.5-10 mg/ml
[5] = method B: further acid added, undissolved material weighed, WT. of solution 10 g, except Ex. 130 and 141: 9.2, 142: 9.23, 143, 144, 189 and 199: 9.8, 149: 10.6, 153: 7.9, 162 and 188: 9.5, 163: 68, 166: 10.4, 168: 10.7, 169: 10.9, 183: 8.05, 184 and 201: 9.83, 185: 7.1, 186: 9.3, 192: 10.07, 193: 6.4, 195: 6.8, 196: 7, 197: 7.2, 200: 10.1, 206: 15 g
[6] = method A: clear solution, 1 molar part acid, made up with water to WT. of solution 10 g, except Ex. 121 and 150: 12, 123: 12.3, 124: 7.5, 129: 10.3, 135 and 139: 8.95, 164: 10.35, 170: 10.4, 181: 10.04, 187: 9.5, 210: 10.2, 221: 15 g
[7] = method C: ethanol evaporated, residue in water, undissolved material weighed, WT. of solution Ex. 118: 10, 120: 10.4, 148: 9.54, 152: 5.6, 154: 9.1, 155: 8.77, 156: 9.06, 157: 9.5, 158: 9.38, 159: 9.17, 179: 9.65, 180: 11.7, 182: 4.9, 202: 12.05, 213: 12, 214: 11.5, 215: 11.1, 216: 11.6, 217: 12.1 g
[8] = method D: 1 molar part acid, undissolved material weighed, WT. of solution 10 g, except Ex. 136: 8.95, 140: 9.52, 165 and 167: 10.1, 190 and 198: 9.8, 191: 8.9, 194: 6.6, 204: 10.09, 219: 10.6 g

## CCCCN(CC)CC(=O)O[C@H]1C[C@]2(C)[C@@H](C(C)=O)CC[C@H]2[C@@H]2CC[C@H]3C[C@H](O)CC[C@]3(C)[C@H]21 [Example 220]
[1]; [2]
  Dissolved aminoester: 100 mg
pH of the salt solutions; [3]
  pH: 3.6

## CCO[C@H]1C[C@@]2(C)[C@@H](CC[C@@H]3[C@@H]2[C@@H](OC(=O)CN(CC)CC)C[C@]2(C)[C@@H](C(C)=O)CCC[C@@H]32)C[C@@H]1O [Example 225 citrate salt]
[1]
  concentration of aqueous solution of the citrate: 9750 µg/mL
pH of the salt solutions; [4]
  pH: 3.66

## CC(=O)C1CCC2C3CCC4CC(O)CCC4(C)C3C(OC(=O)CNC(C)CC(C)C)CC12C (stereo not drawn) [Example 162]
[1]; [5]
  Dissolved aminoester: 86 mg
pH of the salt solutions; [3]
  pH: 3.0

## CCN(CC)CC(=O)O[C@H]1C[C@]2(C)[C@@H](C(C)=O)CC[C@H]2[C@@H]2CC[C@H]3C[C@](C)(O)CC[C@]3(C)[C@H]21 [Example 131]
[1]; [6]
  Dissolved aminoester: 100 mg
pH of the salt solutions; [3]
  pH: 3.55

## CCCN(CCC)CC(=O)O[C@H]1C[C@]2(C)[C@@H](C(C)=O)CC[C@H]2[C@@H]2CC[C@H]3C[C@H](O)CC[C@]3(C)[C@H]21 [Example 214]
[1]; [7]
  Dissolved aminoester: 115 mg
pH of the salt solutions; [3]
  pH: 3.52

## CCCCN(C)CC(=O)O[C@H]1C[C@]2(C)[C@@H](C(C)=O)CC[C@H]2[C@@H]2CC[C@H]3C[C@H](O)[C@@H](OCC)C[C@]3(C)[C@H]21 [Example 121]
[1]; [6]
  Dissolved aminoester: 120 mg
pH of the salt solutions; [3]
  pH: 3.65

## CCN(CC)CC(=O)O[C@H]1C[C@]2(C)[C@@H](C(C)=O)CC[C@H]2[C@@H]2CC[C@H]3C[C@H](O)[C@@H](SC#N)C[C@]3(C)[C@H]21 [Example 204]
[1]; [8]
  Dissolved aminoester: 88.7 mg
pH of the salt solutions; [3]
  pH: 3.5

## CCOC1CC2(C)C(CCC3C4CCC(C(C)=O)C4(C)CC(OC(=O)CNC(C)CC(C)C)C32)CC1O (stereo not drawn) [Example 166]
[1]; [5]
  Dissolved aminoester: 104 mg
pH of the salt solutions; [3]
  pH: 3.28

## CCCN(CCC)CC(=O)O[C@H]1C[C@]2(C)[C@@H](C(C)=O)CC[C@H]2[C@@H]2CC[C@H]3C[C@H](O)CC[C@]3(C)[C@H]21 [Example 212]
[1]; [2]
  Dissolved aminoester: 73 mg
pH of the salt solutions; [3]
  pH: 3.6

## CC(=O)[C@H]1CC[C@H]2[C@@H]3CC[C@H]4C[C@H](O)CC[C@]4(C)[C@H]3[C@@H](OC(=O)CN3CCC(C)CC3)C[C@]12C [Example 158]
[1]; [7]
  Dissolved aminoester: 93.8 mg
pH of the salt solutions; [3]
  pH: 3.60

## CCN(CC)CC(=O)O[C@H]1C[C@]2(C)[C@@H](C(C)=O)CC[C@H]2[C@@H]2CC[C@H]3C[C@H](O)[C@@H](OC)C[C@]3(C)[C@H]21 [Example 124]
[1]; [6]
  Dissolved aminoester: 75 mg
pH of the salt solutions; [3]
  pH: 3.65

## CC(=O)[C@H]1CC[C@H]2[C@@H]3CC[C@H]4C[C@H](O)CC[C@]4(C)[C@H]3[C@@H](OC(=O)CCN(C)C(C)CC(C)C)C[C@]12C (stereo partly drawn) [Example 200]
[1]; [5]
  Dissolved aminoester: 83 mg
pH of the salt solutions; [3]
  pH: 3.2

## CCCN(CCC)CC(=O)O[C@H]1C[C@]2(C)[C@@H](C(C)=O)CC[C@H]2[C@@H]2CC[C@H]3C[C@H](O)CC[C@@H]3[C@H]21 [Example 227 citrate salt]
[1]
  concentration of aqueous solution of the citrate: 10000 µg/mL
pH of the salt solutions; [4]
  pH: 3.0

## CCN(CC)CC(=O)OC1CC2(C)C(C(C)=O)CCC2C2CCC3CC(O)C(C)CC3(C)C12 (stereo not drawn) [Example 173]
[1]; [5]
  Dissolved aminoester: 78 mg
pH of the salt solutions; [3]
  pH: 2.82

## CCCCCNCC(=O)O[C@H]1C[C@]2(C)[C@@H](C(C)=O)CC[C@H]2[C@@H]2CC[C@H]3C[C@H](O)CC[C@]3(C)[C@H]21 [Example 130]
[1]; [5]
  Dissolved aminoester: 80 mg
pH of the salt solutions; [3]
  pH: 3.12

## CCCCN(C)CC(=O)O[C@H]1C[C@]2(C)[C@@H](C#N)CC[C@H]2[C@@H]2CC[C@H]3C[C@H](O)CC[C@]3(C)[C@H]21 [Example 205]
[1]; [8]
  Dissolved aminoester: 97 mg
pH of the salt solutions; [3]
  pH: 3.4

## CCCCN(C)CC(=O)OC1CC2(C)C(CC(C)C2C(C)=O)C2CCC3CC(O)CCC3(C)C12 (stereo not drawn) [Example 177]
[1]; [6]
  Dissolved aminoester: 100 mg
pH of the salt solutions; aqueous solution, pH adjusted with sodium hydroxide solution
  pH: 4.0

## CC(=O)[C@H]1CC[C@H]2[C@@H]3CC[C@H]4C[C@H](O)CC[C@]4(C)[C@H]3[C@@H](OC(=O)CN(C)C3CCCCC3)C[C@]12C [Example 127]
[1]; [6]
  Dissolved aminoester: 100 mg
pH of the salt solutions; [3]
  pH: 3.62

## CCCN(CCC)CC(=O)O[C@H]1C[C@]2(C)[C@@H](C(C)=O)CC[C@H]2[C@@H]2CC[C@H]3C[C@H](O)CC[C@]3(C)[C@H]21 [Example 154]
[1]; [7]
  Dissolved aminoester: 91 mg
pH of the salt solutions; [3]
  pH: 3.5

## CC(=O)[C@H]1CC[C@H]2[C@@H]3CC[C@H]4C[C@H](O)CC[C@]4(C)[C@H]3[C@@H](OC(=O)CN(C(C)C)C(C)C)C[C@]12C [Example 153]
[1]; [5]
  Dissolved aminoester: 79 mg
pH of the salt solutions; [3]
  pH: 3.02

## CCCCN(C)C(C)C(=O)O[C@H]1C[C@]2(C)[C@@H](C(C)=O)CC[C@H]2[C@@H]2CC[C@H]3C[C@H](O)CC[C@]3(C)[C@H]21 (stereo partly drawn) [Example 182]
[1]; [7]
  Dissolved aminoester: 49 mg
pH of the salt solutions; [3]
  pH: 3.43
